Source: PMC11109052, “Metabolism characterization and toxicity of N-hydap, a marine candidate drug for lung cancer therapy by LC–MS method” (Natural Products and Bioprospecting, 2024)

What was measured:
[1] = test system: Cyp3a11; assay: Real-time PCR mRNA level after 7 days gavage: Cyp3a11 (human homolog CYP3A4); assay type: in vivo, mice; design: key to CYP3A4 mNA expression: ↑: up-regulation; ↓: down-regulation; –: no change
Protocol: (§1) Mice were randomly divided into four groups, with eight animals in each group. The mice received oral pretreatment with N-hydap for 7 days at doses of 2, 5, and 10 mg/kg/day, which were considered as the low dose, medium dose, and high dose, respectively. Correspondingly, the control group received PBS. On the 8th day, the liver and kidneys were removed, and organs from eight mice per group were combined to prepare MLMs and MKMs using the detailed procedures above. Subsequently, we determined the activity of CYP and UGT enzymes by specific substrate metabolized with MLMs (0.5 mg/mL) and MKMs (0.2 mg/mL) in vitro. Specifically, the following selective substrates were used for the respective enzymes: PH (1 μM) for CYP1A2, DIC (1 μM) for CYP2C9, MP (90 μM) for CYP2C19, DM (1 μM) for CYP2D6, CZX (10 μM) for CYP2E1, Tes (1 μM) for CYP3A4, SN38 (1 μM) for UGT1A1, CACD (100 μM) for UGT1A3, Sero (20 μM) for UGT1A6, and Prop (1 μM) for UGT1A9. All substrates were dissolved in methanol or DMSO. The incubation procedure was carried out as mentioned above, and the reaction was terminated with VER (20 ng/mL) in ESI+ mode and CLP (200 ng/mL) in ESI− mode. In the ex vivo experiments, the activity of enzymes was measured by quantifying the production of various metabolites (nM/mg protein/min). The metabolites and their corresponding enzymes are as follows: APAP from PH, 4-OH-DIC from DIC, 4-OH-MP from MP, DXO from DM, 6-OH-CZX from CZX, 6-OH-Tes from Tes, SN38-G from SN38, CACD-G from CACD, Sero-G from Sero, Prop-G from Prop. The measurements were performed using multiple reaction monitoring (MRM) transitions, which are specific mass spectrometry transitions used for quantification. The optimized parameters for each metabolite, such as declustering potential and collision energy, were described in Supplementary Table 1. All experiments were conducted in triplicate, to ensure accuracy and reproducibility.
Total RNA from liver and kidney samples taken after 7 days of N-hydap gavage was extracted using the Animal Total RNA Isolation Kit (Foregene, Chengdu, Sichuan, China) following the manufacturer’s instructions. The concentrations of total RNA were determined by a nucleic acid concentration tester at 260/280 nm. A HiScript III RT SuperMix for qPCR (+ gDNA wiper) (Vazyme, Nanjing, Jiangsu, China) was used to measure the concentration of the synthesized cDNA. ChamQ SYBR qPCR Master Mix (Vazyme, Nanjing, Jiangsu, China) and detection were performed using a Light Cycler 480 II (ROCHE, Basel, Switzerland). Real-time PCR was used to analyze the relative mRNA levels of Cyp1a2, Cyp2b10, Cyp2c39, Cyp2d22, Cyp2e1, Cyp3a11, Ugt1a1, Ugt1a6a and Ugt1a9 (human homologs: CYP1A2, CYP2B6, CYP2C19, CYP2D6, CYP2E1, CYP3A4, UGT1A1, UGT1A6, and UGT1A9) in the liver, kidneys, and intestines. […]

[2] = test system: CYP2C9; assay: DME activity ex vivo in MLMs and MKMs: CYP2C9 (4-OH-DIC from DIC); conditions: liver microsomes of mice pretreated 7 days p.o.
Protocol: as §1, with “The incubation procedure was carried out as mentioned above, and the reaction was terminated with VER (20 ng/mL) in ESI+ mode and CLP (200 ng/mL) in ESI− mode.” left out, “The metabolites and their corresponding enzymes are as follows: APAP from PH, 4-OH-DIC from DIC, 4-OH-MP from MP, DXO from DM, 6-OH-CZX from CZX, 6-OH-Tes from Tes, SN38-G from SN38, CACD-G from CACD, Sero-G from Sero, Prop-G from Prop.” left out, “The optimized parameters for each metabolite, such as declustering potential and collision energy, were described in Supplementary Table 1. All experiments were conducted in triplicate, to ensure accuracy and reproducibility.” left out

[3] = molecular target: T1, recombinant human CYP enzymes (CYP1A2, CYP2B6, CYP2C9, CYP2C19, CYP2D6, CYP3A4, CYP4A11 and CYP4F2) (Homo sapiens, UniProt P08684); assay: Incubation with 8 recombinant human CYP enzymes; assay type: in vitro ADME; conditions: Table 4 experimental column
T1 construct: purchased Cypex (Scotland, UK)
Protocol: (§2) Incubation of N-hydap (2.5 μM) with eight recombinant human CYP enzymes (CYP1A2, CYP2B6, CYP2C9, CYP2C19, CYP2D6, CYP3A4, CYP4A11 and CYP4F2) at three enzyme concentrations (2, 4, and 20 μg/mL) was conducted following the same procedure as described above for microsomes. Subsequently, incubation with N-hydap (1, 2.5, and 6 μM) and twelve recombinant human UGT isoforms (UGT1A1, UGT1A3, UGT1A4, UGT1A6, UGT1A7, UGT1A8, UGT1A9, UGT1A10, UGT2B4, UGT2B7, UGT2B15 and UGT2B17) was performed, with the enzyme concentration used at 2 μg/mL. All reactions were carried out in triplicate.

[4] = molecular target: T2, recombinant human CYP enzymes (CYP1A2, CYP2B6, CYP2C9, CYP2C19, CYP2D6, CYP3A4, CYP4A11 and CYP4F2) (Homo sapiens, UniProt P05177); assay: Incubation with 8 recombinant human CYP enzymes; assay type: in vitro ADME; conditions: Table 4 experimental column
T2 construct: purchased Cypex (Scotland, UK)
Protocol: as §2

[5] = test system: recombinant human CYP enzymes (CYP1A2, CYP2B6, CYP2C9, CYP2C19, CYP2D6, CYP3A4, CYP4A11 and CYP4F2); assay: Incubation with 8 recombinant human CYP enzymes; assay type: in vitro ADME; conditions: N-hydap 2.5 μM; enzyme concentrations of 2 and 4 μg/mL; all recombinant CYPs
Protocol: as §2

[6] = molecular target: T3, recombinant human CYP enzymes (CYP1A2, CYP2B6, CYP2C9, CYP2C19, CYP2D6, CYP3A4, CYP4A11 and CYP4F2) (Homo sapiens, UniProt P11712); assay: Incubation with 8 recombinant human CYP enzymes; assay type: in vitro ADME; conditions: Table 4 experimental column
T3 construct: purchased Cypex (Scotland, UK)
Protocol: as §2

[7] = Stability in plasma; assay type: in vitro ADME
Protocol: The stability of the KPI solution was examined after storage at 4 °C for 24 h and incubation at 37 °C for 4 h, which was conducted using the QC samples at three concentrations (five samples for each concentration). Stability in plasma and tissue homogenate was assessed by testing samples stored at both 4 °C and room temperature for 24 h.

T3 sequence (P11712 whole entry): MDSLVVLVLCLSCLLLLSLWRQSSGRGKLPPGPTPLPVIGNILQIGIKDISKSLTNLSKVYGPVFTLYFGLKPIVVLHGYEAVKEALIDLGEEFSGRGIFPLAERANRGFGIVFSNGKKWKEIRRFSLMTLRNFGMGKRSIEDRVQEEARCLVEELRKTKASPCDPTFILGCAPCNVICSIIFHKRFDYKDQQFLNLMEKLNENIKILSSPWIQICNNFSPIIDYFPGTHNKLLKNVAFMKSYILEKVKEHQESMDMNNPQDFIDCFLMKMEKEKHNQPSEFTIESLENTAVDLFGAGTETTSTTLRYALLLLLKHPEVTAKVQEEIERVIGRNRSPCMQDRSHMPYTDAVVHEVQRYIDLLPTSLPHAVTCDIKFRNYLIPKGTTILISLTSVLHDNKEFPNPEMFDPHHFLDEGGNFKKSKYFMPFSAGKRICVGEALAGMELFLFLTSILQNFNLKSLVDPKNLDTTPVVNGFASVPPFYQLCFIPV
T1 sequence (P08684 whole entry): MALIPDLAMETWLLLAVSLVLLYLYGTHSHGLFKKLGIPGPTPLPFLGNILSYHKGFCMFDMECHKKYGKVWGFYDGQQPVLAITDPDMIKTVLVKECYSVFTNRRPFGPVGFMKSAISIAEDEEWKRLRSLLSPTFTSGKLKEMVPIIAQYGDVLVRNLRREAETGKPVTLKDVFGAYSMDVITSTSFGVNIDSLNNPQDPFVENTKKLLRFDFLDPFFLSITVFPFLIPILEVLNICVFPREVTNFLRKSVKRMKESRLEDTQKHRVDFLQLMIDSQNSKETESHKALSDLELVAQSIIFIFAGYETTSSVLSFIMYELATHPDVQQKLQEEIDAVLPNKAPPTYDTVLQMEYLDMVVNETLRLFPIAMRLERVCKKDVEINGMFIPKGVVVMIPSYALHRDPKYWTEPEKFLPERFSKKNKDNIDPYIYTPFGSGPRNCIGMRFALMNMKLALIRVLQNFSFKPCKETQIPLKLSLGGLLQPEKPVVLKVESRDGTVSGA
T2 sequence (P05177 whole entry): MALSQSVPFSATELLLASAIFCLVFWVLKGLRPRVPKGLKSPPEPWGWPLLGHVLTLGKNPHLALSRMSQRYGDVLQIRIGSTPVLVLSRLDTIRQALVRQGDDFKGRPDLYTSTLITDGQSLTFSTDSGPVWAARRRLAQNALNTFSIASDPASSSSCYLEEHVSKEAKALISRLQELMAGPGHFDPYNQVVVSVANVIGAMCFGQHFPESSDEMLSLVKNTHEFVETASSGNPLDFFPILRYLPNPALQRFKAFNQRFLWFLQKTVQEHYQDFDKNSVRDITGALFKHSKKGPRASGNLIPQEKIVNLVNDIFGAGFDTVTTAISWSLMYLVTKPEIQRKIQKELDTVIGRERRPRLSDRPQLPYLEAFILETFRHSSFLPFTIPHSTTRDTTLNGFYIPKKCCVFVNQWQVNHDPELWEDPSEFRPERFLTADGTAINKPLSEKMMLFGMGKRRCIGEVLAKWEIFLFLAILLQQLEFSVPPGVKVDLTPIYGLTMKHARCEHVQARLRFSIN

## CC1CCC2C(C=CC(C)C2C(=O)c2c(O)c(C3(O)CCC(O)C4OC43)cn(O)c2=O)C1 (stereo not drawn) [N-hydap, N-Hydroxyapiosporamide]
[1]; Kidney
  CYP3A4 mNA expression: ↑
[1]; Liver
  CYP3A4 mNA expression: ↑
[1]; mice, 2, 5, 10 mg/kg p.o. 7 days, intestines
  mRNA levels of Cyp3a11: slight reduction
[1]; mice, 2, 5, 10 mg/kg p.o. 7 days, liver and kidneys
  increase of mRNA levels of Cyp3a11: 78%-160%
[2]
  reduction of formation rate of 4-OH-DIC vs control: 70%
[3]
  CYP3A4 substrate, experimental results: Yes
[4]
  CYP1A2 substrate, experimental results: Yes
[5]
  prototype elimination rate: less than 25%
[6]
  CYP2C9 substrate, experimental results: Yes
[7]; 200 nM, 4℃ for 24h
  stability, Accuracy (Bias, %): 113.9%
[7]; 200 nM, room temperature for 24h
  stability, Accuracy (Bias, %): 101.9%
[7]; 600 nM, 4℃ for 24h
  stability, Accuracy (Bias, %): 87.98%
[7]; 600 nM, room temperature for 24h
  stability, Accuracy (Bias, %): 105.23%
[7]; 2500 nM, 4℃ for 24h
  stability, Accuracy (Bias, %): 91.36%
[7]; 2500 nM, room temperature for 24h
  stability, Accuracy (Bias, %): 108.04%
